13 molecules from BindingDB's records for doi:10.1016/j.ejmech.2017.02.022 (Svkm'S Dr. Bhanuben Nanavati College of Pharmacy, 2017) can be followed below.

This data set is described as follows: Inhibition of ABCB1 in human MCF7/ADR cells assessed as potentiation of vinblastine-induced cytotoxicity by measuring vinblastine IC50 at IC10 after 7 days by SRB assay. For orientation: The SRB assay estimates cell density from bound dye.
For `CCN(CC)CCCn1c2ccccc2c(=O)c2cc(C)cc(C)c21`, the half-maximal inhibitory concentration (IC50) amounted to 14 nM.
`Cc1cc(C)c2c(c1)c(=O)c1ccccc1n2CCCN(CCO)CCO`: the IC50 turned out to be 11 nM.
The result for `Cc1cc(C)c2c(c1)c(=O)c1ccccc1n2CCCCN1CCOCC1` reads 4 nM; that for `Cc1cc(C)c2c(c1)c(=O)c1ccccc1n2CCCCN1CCCCC1`, 5 nM.
Consider `CCN(CC)CCCCn1c2ccccc2c(=O)c2cc(C)cc(C)c21`, for which the 50% inhibitory concentration (IC50) was found to be 4.1 nM.
The result for `Cc1cc(C)c2c(c1)c(=O)c1ccccc1n2CCCCN(CCO)CCO` reads 3.1 nM.
The result for `Cc1cc(C)c2c(c1)c(=O)c1ccccc1n2CCCCN1CCN(CCO)CC1` reads 1.3 nM; that for `Cc1cc(C)c2[nH]c3ccccc3c(=O)c2c1`, 27 nM.
In the case of `Cc1cc(C)c2c(c1)c(=O)c1ccccc1n2CCCN1CCOCC1`, the IC50 amounted to 20 nM.
As for `Cc1cc(C)c2c(c1)c(=O)c1ccccc1n2CCCN1CCN(C)CC1`, the IC50 worked out at 17 nM.
As for `Cc1cc(C)c2c(c1)c(=O)c1ccccc1n2CCCN1CCCCC1`, the figure is 17 nM; as for `Cc1cc(C)c2c(c1)c(=O)c1ccccc1n2CCCN1CCN(CCO)CC1`, 8 nM; as for `Cc1cc(C)c2c(c1)c(=O)c1ccccc1n2CCCCN1CCN(C)CC1`, 10 nM.

As usually defined, the IC50 is the concentration that gives 50% inhibition.
